Laboratory results reported in patent US20210386761A1, “COMPOSITION FOR PREVENTING OR TREATING INFLAMMATORY BOWEL DISEASE, CONTAINING, AS ACTIVE INGREDIENT, TAURODEOXYCHOLIC ACID OR PHARMACEUTICALLY ACCEPTABLE SALT THEREOF” (SHAPERON INC., priority 2019, published 2021).

Assays:
[1] = tested on: inflammatory bowel disease-induced mouse model (DSS); assay: Histopathological symptom analysis (colon length, histological state and score) in 2% DSS mouse model; format: in vivo
Method: After the experiment was completed, the mice were euthanized with CO2 and the bowels were excised. Next, the bowels were put in cold 1×DPBS and the remaining mesenteric adipose tissue was isolated. At this time, the colon length was measured. Next, the tail end of the colon was opened and wound up with scissors to obtain colon tissue. The obtained colon tissue was fixed in 10% neutral buffered formalin (Sigma-Aldrich, HT501128-4L, St. Louis, Mo., USA) at room temperature for 48 hours and then treated in a tissue processor (Excelsior ES, Thermo scientific, Waltham, Mass., USA) for 12 hours. The processed tissue was sectioned and paraffinized using a microtome (Microm, HM 340E, Thermo Scientific, Waltham, Mass., USA) and an embedding system (HistoStar, Thermo Scientific, Waltham, Mass., USA). Next, the processed tissue was stained with hematoxylin and eosin, and visualized under an optical microscope (Motic, BA310, Redding, Calif., USA) to confirm the histopathological state, and the histopathological state was scored to histological score according to the criteria in the following [Table 2].
(§1) Specifically, female C57BL/6 mice were fed with a 2% DSS solution or DPBS together with drinking water for 7 days from Day 0 of the experiment by the same method as that described in <Example 1>, DPBS or 5 mg/kg TDCA was administered to the mice by oral gavage one time a day for 6 days from Day 1 of the experiment, and the body weight and DAI were measured daily. As a control, mice freely fed with drinking water were used. Next, the mice were sacrificed on Days 5 and 7 of the experiment by the same method as that described in <Example 2>, and histopathological symptom analysis was performed.
as §1, with “or 10, 5, 2.5, or 1” for “or 5”, “1” for “1 of”, “used.” for “used. Next, the mice were sacrificed on Days 5 and 7 of the experiment by the same method as that described in <Example 2>, and histopathological symptom analysis was performed.”
Next, the mice were sacrificed on Day 8 of the experiment by the same method as that described in <Example 2>, and histopathological symptom analysis was performed.
The mice were sacrificed on Day 8 of the experiment by the same method as that described in <Example 2>, and the colon length was measured.

[2] = tested on: chronic inflammatory bowel disease model induced with 2.5% DSS; assay: Chronic inflammatory bowel disease model, repeated 2.5% DSS, comparison with clinical prescription drugs; format: in vivo, mouse
Method: In order to evaluate the clinical symptoms-improving efficacy in comparison with those by clinical prescription drugs, inflammatory bowel disease was induced by 7-day or repeated administration of 3% or 2.5% DSS solution, and tofacitinib 10 mg/kg, 5-ASA 100 mg/kg or 200 mg/kg, prednisolone 1 mg/kg, and TDCA 2.5 mg/kg were administered one time a day from the start date of DSS administration. From the start date of DSS administration, TDCA 2.5 mg/kg was administered one time a day (QD), two times a day (BID), and three times a day (TID).

[3] = 2% DSS 7 days, 5 mg/kg TDCA oral gavage, FIG. 2B
[4] = 2% DSS 7 days, 10, 5, 2.5, or 1 mg/kg TDCA, Day 8, FIG. 5B

With C[C@H](CCC(=O)NCCS(=O)(=O)O)[C@H]1CC[C@H]2[C@@H]3CC[C@@H]4C[C@H](O)CC[C@]4(C)[C@H]3C[C@H](O)[C@]12C [TDCA, sodium taurodeoxycholic acid] the colon length change ([1]; 2% DSS 7 days, 5 mg/kg TDCA oral gavage one time a day for 6 days, FIG. 2A) was “the decrease in colon length was slight”, the average histological score ([1]; 2% DSS 7 days, 5 mg/kg TDCA oral gavage, DSS+DPBS group about 7, FIG. 2C) was “about 4” and the “epithelial cell defects (histological state)” value [1, 3] was “not observed”. The “infiltration of inflammatory cells into the mucous membrane” value [1, 3] was “slight”, the ulcer ([1]; 2% DSS 7 days, 5 mg/kg TDCA oral gavage, FIG. 2C) was “the ulcer was alleviated” and the colon length change ([1]; 2% DSS 7 days, 10, 5, 2.5, or 1 mg/kg TDCA, Day 8, FIG. 5A) was “the decrease in colon length was slight”. The “epithelial cell defects (histological state)” value [1, 4] was “not observed”, the “infiltration of inflammatory cells into the mucous membrane” value [1, 4] was “alleviated” and the colon length change ([1]; 2% DSS 7 days, TDCA at 5 and 10 mg/kg, Day 8, FIG. 5A) was “the decrease in colon length was slighter”. For the same compound, the average histological score ([1]; 2% DSS 7 days, TDCA at 5 and 10 mg/kg, Day 8, FIG. 5C) was “about 4”, the ulcer alleviating effect ([1]; 2% DSS 7 days, TDCA at 5 and 10 mg/kg, Day 8, FIGS. 5B and 5C) was “superior” and the colon length change ([1]; DSS+TDCA group: 5 mg/kg TDCA from Day 1 of DSS, Day 8, FIG. 6C) was “the decrease in colon length was suppressed”. For the same compound, the colon length change ([1]; DSS+preTDCA group: 5 mg/kg TDCA from 2 days before DSS, Day 8, FIG. 6C) was “the decrease in colon length was suppressed”, the “body weight change, compared with clinical prescription drugs” value ([2]; TDCA 2.5 mg/kg QD, BID and TID vs tofacitinib 10 mg/kg and 5-ASA 200 mg/kg, FIG. 11A) was “effect equivalent to or higher than those by tofacitinib 10 mg/kg and 5-ASA 200 mg/kg” and the “mortality, compared with clinical prescription drugs” value ([2]; TDCA 2.5 mg/kg, FIG. 11B) was “effect equivalent to or higher than those by clinical prescription drugs”.
